{
  "source": "patent US4774248A",
  "about": "“Methods of treating depression and depressive states using 5-phenyl-1,4,5,6-tetrahydropyrimidine derivatives” (priority 1985, dated 1988)",
  "key": {"mice [1]": {"system": "mice", "assay": "Behavioral despair (forced immersion)", "format": "in vivo", "conditions": "mice which have been forcibly immersed, i.p.", "method": "(§1) The results of toxicological and neuropsychopharmacological tests which were carried out with the products according to the invention have been summarized below. In these tests, solutions of the said products in distilled water were administered intraperitoneally in a volume of 20 ml/kg to male mice and in a volume of 5 ml/kg to male rats.\nHalf an hour after they have received CRL 41 378, groups of 6 mice are placed in a beaker filled with water to a height of 6 cm. The total period of immobility between the 2nd and 6th minutes following immersion is noted."}, "[2]": {"system": "hypothermia, righting behavior and stereotypies induced by apomorphine", "assay": "Interaction with apomorphine in mice", "format": "in vivo", "conditions": "i.p.", "method": "as §1\nCRL 41 378 is administered to groups of 6 mice 30 minutes before the subcutaneous injection of 1 or 16 mg/kg of apomorphine."}, "[3]": {"system": "trembling and head twitches induced by 5-hydroxytryptophan (5-HTP)", "assay": "Interaction with 5-hydroxytryptophan in association with an MAOI (nialamide)", "format": "in vivo, male mice", "method": "The purpose of the procedure used is to investigate the activity of each product according to the invention as regards the trembling induced by 5-hydroxytryptophan (5-HTP) in association with an MAOI (in this case nialamide).\nEach test product, in solution in distilled water, is administered intraperitoneally in a volume of 20 ml/kg to male mice.\nGroups of 10 mice receive nialamide (20 mg/kg, administered gastrically) at time T-18 h, each test product at time T-0.5 h and then (±)-5-HTP (20 mg/kg, administered intraperitoneally) at time T. Immediately after the injection of the (±)-5-HTP, the mice are individually placed in transparent plastic boxes. The generalized trembling, the partial trembling and the head twitches are noted on a yes/no basis for 2 h."}, "mice [4]": {"system": "mice", "assay": "Motility reduced by habituation to the enclosure", "format": "in vivo", "conditions": "i.p.", "method": "as §1\nAfter they have stayed in the actimeters for 18 hours, the mice (6 per dose, 12 control animals) receive CRL 41 378. They are immediately returned to their respective enclosures and, half an hour later, their motility is recorded for 30 minutes."}, "rats": {"system": "rats", "assay": "Overall behavior and reactivities in rats", "format": "in vivo", "conditions": "i.p.", "method": "as §1\n(§2) Groups of 3 animals are observed before and then 0.25 h, 0.50 h, 1 h, 2 h, 3 h and 24 h after the administration of CRL 41 378. The following observations are made:\n(§3) Groups of 3 animals are observed before and then 0.25 h, 0.50 h, 1 h, 2 h, 3 h and 24 h after the administration of CRL 41 329."}, "mice [5]": {"system": "mice", "assay": "Intergroup aggressiveness", "format": "in vivo", "conditions": "mice, i.p.", "method": "as §1\nAfter they have stayed for 3 weeks in the two halves of a cage divided by an opaque partition, groups of 3 mice receive CRL 41 378. Half an hour later, the two groups from the same cage are brought together by removal of the partition and the number of fights which occur in 10 minutes is noted."}, "male mice": {"system": "male mice", "assay": "Acute toxicity, intraperitoneal (LD0, LD30, LD60, LD100)", "format": "in vivo", "method": "as §1"}, "mice [6]": {"system": "mice", "assay": "Overall behavior and reactivities in mice", "format": "in vivo", "conditions": "i.p.", "method": "as §1, §2, §3"}, "pregnant rabbits": {"system": "pregnant rabbits", "assay": "Teratogenic effects on pregnant rabbits", "format": "in vivo"}, "[7]": {"system": "hypothermia, trembling and peripheral cholinergic symptoms induced by oxotremorine", "assay": "Interaction with oxotremorine", "format": "in vivo", "conditions": "mice, i.p.; oxotremorine 0.5 mg/kg", "method": "as §1\nCRL 41 378 is administered to groups of 6 mice 0.5 h before the intraperitoneal injection of 0.5 mg/kg of oxotremorine."}, "[8]": {"system": "hypothermia induced by apomorphine", "assay": "Interaction with apomorphine by gastric administration", "format": "in vivo", "conditions": "Mus musculus, male mice, apomorphine 16 mg/kg s.c., read-out: dose as from which the hypothermia induced by apomorphine is opposed", "method": "Each test product is administered gastrically to male mice, in a volume of 20 ml/kg, 0.50 h before the subcutaneous injection of 16 mg/kg of apomorphine."}, "[9]": {"system": "hypothermia and ptosis induced by reserpine", "assay": "Interaction with reserpine", "format": "in vivo", "conditions": "mice, i.p.; reserpine 2.5 mg/kg", "method": "as §1\nFour hours after the intraperitoneal injection of 2.5 mg/kg of reserpine, groups of 12 mice receive CRL 41 378."}, "[10]": {"system": "depressions and depressive states", "assay": "Clinical trials in depression and depressive states", "format": "in vivo, human", "method": "The clinical trials which have been undertaken have made it possible to determine that the daily dose to be administered orally to adults, in the treatment of depressions and depressive states, is generally between 3 and 120 mg for the products of the formulae Ia and Ib according to the invention."}, "[11]": {"system": "central nervous system (CNS)", "assay": "Neuropsychopharmacological profile (conclusions of the tests)", "format": "in vivo, mice and rats", "conditions": "for overall neuropsychopharmacological profile: summary", "method": "as §1"}, "[12]": {"system": "stereotypies induced by amphetamine", "assay": "Interaction with amphetamine (rats)", "format": "in vivo", "conditions": "i.p.; amphetamine 2 mg/kg", "method": "as §1\nAmphetamine (2 mg/kg) is injected intraperitoneally into groups of 6 rats 30 minutes after the administration of CRL 41 378."}, "[13]": {"conditions": "i.p., nialamide + (±)-5-HTP, male mice"}},
  "note": "“Also recorded” adds a separate entry of the source.",
  "data": [
    {"smiles": "CC1=NCC(c2ccccc2)CN1.Cl", "note": "(centres unmarked) [CRL 41 352, 2-methyl-5-phenyl-1,4,5,6-tetrahydropyrimidine hydrochloride]", "values": [
      {"measurement": "period of immobility", "setting": "mice [1]", "result": "no decrease in the period of immobility due to \"despair\""},
      {"measurement": "action on hypothermia induced by apomorphine", "setting": "[2]", "result": "significant antagonism (as from the lowest doses used) of the hypothermia induced by apomorphine and oxotremorine"},
      {"measurement": "analogy with β-adrenergic stimulants in the 5-HTP procedure", "setting": "[3]; 5-HTP + MAOI", "result": "effects analogous to those of isoprenaline"},
      {"measurement": "intensity of potentiation of 5-HTP effects", "setting": "[3]; higher doses, 5-HTP + MAOI, male mice", "result": "the potentiation being very intense at the doses of 8 to 32 mg/kg"},
      {"measurement": "head twitches", "setting": "[3]; [13]", "result": "distinctly potentiate the partial trembling and the head twitches"},
      {"measurement": "partial trembling", "setting": "[3]; [13]", "result": "distinctly potentiate the partial trembling and the head twitches"},
      {"measurement": "resumption in the motor activity of mice accustomed to their enclosure", "setting": "mice [4]", "result": "a resumption in the motor activity of mice accustomed to their enclosure"},
      {"measurement": "overall behavior and reactivities", "setting": "rats; 4 mg/kg and 16 mg/kg", "result": "mydriasis"},
      {"measurement": "overall behavior and reactivities", "setting": "rats; 16 mg/kg", "result": "a decrease in the breathing rate"},
      {"measurement": "intergroup aggressiveness (number of fights)", "setting": "mice [5]", "result": "a decrease in the number of fights in the intergroup aggressiveness test"},
      {"measurement": "toxic signs in the animals treated", "setting": "male mice; 64 mg/kg i.p.", "result": "all the animals treated exhibit sedation and a decrease in the breathing rate"},
      {"measurement": "LD0 (maximum non-lethal dose)", "setting": "male mice; intraperitoneal", "result": "greater than 64 mg/kg"},
      {"measurement": "LD30", "setting": "male mice; intraperitoneal", "result": "~128", "unit": "mg/kg"},
      {"measurement": "overall behavior and reactivities", "setting": "mice [6]; 0.5 mg/kg, 2 mg/kg, 8 mg/kg and 32 mg/kg", "result": "no distinct modification of the behavior and reactivities"},
      {"measurement": "teratogenic effects", "setting": "pregnant rabbits", "result": "devoid of harmful teratogenic effects on pregnant rabbits"},
      {"measurement": "action on hypothermia induced by oxotremorine", "setting": "[7]", "result": "significant antagonism (as from the lowest doses used) of the hypothermia induced by apomorphine and oxotremorine"},
      {"measurement": "minimal effective dose", "setting": "[8]", "result": "≥ 0.5", "unit": "mg/kg"},
      {"measurement": "action on hypothermia induced by reserpine", "setting": "[9]", "result": "more moderate antagonism of the hypothermia induced by reserpine"},
      {"measurement": "effectiveness in ambulant patients with depressive symptomatology", "setting": "[10]; asthenia, slowing down or both psycho-intellectual and motor inhibition", "result": "particularly effective"},
      {"measurement": "results in human therapy (depression)", "setting": "[10]; daily oral administration to adults", "result": "excellent results"},
      {"measurement": "antidepressant effects", "setting": "[11]; i.p.", "result": "antidepressant effects which are very distinct"},
      {"measurement": "sedative effects", "setting": "[11]; i.p.", "result": "sedative effects appearing at very high doses"},
      {"measurement": "stimulant effects", "setting": "[11]; i.p.", "result": "a stimulant effect which is very moderate, appearing at high doses"},
      {"measurement": "overall neuropsychopharmacological profile", "setting": "[11]", "result": "principally an antidepressant having a very slight stimulant component and a very weak sedative component"}
    ]},
    {"smiles": "CC1(C)NCC(O)(c2ccccc2)CN1", "note": "[CRL 41 365, 2,2-dimethyl-5-hydroxy-5-phenyl-1,2,3,4,5,6-hexahydropyrimidine]", "values": [
      {"measurement": "period of immobility", "setting": "mice [1]", "result": "a very moderate decrease in the period of immobility of mice which have been forcibly immersed"},
      {"measurement": "overall behavior and reactivities", "setting": "rats; 8 mg/kg", "result": "no distinct modification of the behavior and reactivities compared with the control animals"},
      {"measurement": "overall behavior and reactivities", "setting": "rats; 32 mg/kg", "result": "sedation and a decrease in the breathing rate for 1 h; also recorded: a decrease in the reactivity to touch for 0.5 h"},
      {"measurement": "overall behavior and reactivities", "setting": "rats; 128 mg/kg", "result": "sedation and a decrease in the breathing rate for 3 h; also recorded: a decrease in the reactivity to touch for 1 h"},
      {"measurement": "LD0 (maximum non-lethal dose)", "setting": "male mice; intraperitoneal", "result": "greater than 512 mg/kg"},
      {"measurement": "overall behavior and reactivities", "setting": "mice [6]; 256 mg/kg", "result": "sedation, for 1 h; also recorded: a decrease in the heart rate for 1 h; also recorded: a decrease in the reactivity to touch for 0.5 h; also recorded: hypothermia for 3 h"},
      {"measurement": "hypothermia, maximum intensity", "setting": "mice [6]; 256 mg/kg, 0.5 h after administration", "result": -1.6, "unit": "°C"},
      {"measurement": "overall behavior and reactivities", "setting": "mice [6]; 16 and 64 mg/kg", "result": "no distinct modification of the behavior and reactivities compared with the control animals"},
      {"measurement": "sedative effects", "setting": "[11]; i.p.", "result": "sedation with a decrease in the reactivities in rats and mice, hypothermia in mice"},
      {"measurement": "overall neuropsychopharmacological profile", "setting": "[11]", "result": "essentially a sedative"},
      {"measurement": "action on stereotypies induced by amphetamine", "setting": "[12]", "result": "at all the doses studied, this product potentiates the stereotypies induced by amphetamine"}
    ]}
  ]
}
